Laboratory results reported in US20240122180A1, “FUNGICIDAL HALOMETHYL KETONES AND HYDRATES AND THEIR MIXTURES” (FMC Corporation, priority 2020, published 2024).

How the values were obtained:
[1] = system: Phakopsora pachyrhizi (the causal agent of Asian soybean rust); test: Test A: preventive spray on soybean seedlings, visual disease rating (100 = 100% control; * 50 ppm, ** 10 ppm, *** 250 ppm); type: in vivo; conditions: 100 = 100% disease control
Source text: (§1) General protocol for preparing test suspensions for Tests A-E: the test compounds were first dissolved in acetone in an amount equal to 3% of the final volume and then suspended at the desired concentration (in ppm) in acetone and purified water (50/50 mix by volume) containing 250 ppm of the surfactant […] (polyhydric alcohol esters). The resulting test suspensions were then used in Tests A-E.
(§2) The test solution was sprayed to the point of run-off on soybean seedlings. The following day the seedlings were inoculated with a spore suspension of Phakopsora pachyrhizi (the causal agent of Asian soybean rust) and incubated in a saturated atmosphere at 22° C. for 24 h, and then moved to a growth chamber at 22° C. for 8 days, after which time visual disease ratings were made.
(§3) Results for Tests A-E are given in Table A. In the Table, a rating of 100 indicates 100% disease control and a rating of 0 indicates no disease control (relative to the controls). An asterisk “*” or a double asterisk “**” or a triple asterisk “***” next to the rating value indicates a 50 ppm, 10 ppm and 250 ppm test suspension was used, respectively. A dash (-) indicates the compound was not tested.

[2] = system: Puccinia recondita f. sp. tritici (the causal agent of wheat leaf rust); test: Test B: preventive spray on wheat seedlings, disease rating (100 = 100% control; * 50 ppm, ** 10 ppm, *** 250 ppm); type: in vivo; conditions: 100 = 100% disease control
Source text: as §1
as §2, with “wheat” for “soybean”, “Puccinia recondita f. sp. tritici” for “Phakopsora pachyrhizi”, “wheat leaf” for “Asian soybean”, “20°” for “22°”, “6” for “8”, “time” for “time visual”
as §3

[3] = 10 ppm test suspension, soybean seedlings
[4] = 10 ppm test suspension, wheat seedlings
[5] = 50 ppm test suspension, 0 = no control
[6] = 50 ppm test suspension, soybean seedlings
[7] = 50 ppm test suspension, wheat seedlings
[8] = Phakopsora pachyrhizi, 10 ppm test suspension, 0 = no control
[9] = Puccinia recondita, 10 ppm test suspension, 0 = no control
[10] = 10 ppm test suspension, 0 = no control

Row | Compound | Test A disease control rating [1, 3] | Test B disease control rating [2, 4] | also measured
1 | CN(C)C(=O)C1=NOC(c2ccc(OCC3(C(F)(F)F)OCCO3)cc2)C1 (centres unmarked) [compound 22] | 38% | 0% | 
2 | CCO/C(=C\Oc1ccc(Cn2ncc3cccnc32)cc1)C(F)(F)F [compound 87] | 0% | 0% | 
3 | C[Si](C)(C)CCOc1nccc(Cc2ccc(OCC3(C(F)(F)F)OCCO3)cc2)n1 [compound 314] |  |  | Test A disease control rating [1, 5]: 0%; Test B disease control rating [2, 5]: 0%
4 | O=C(OCc1ccccc1)c1cnn(Cc2ccc(OCC(O)(O)C(F)(F)F)cc2)c1 [compound 47] |  |  | Test A disease control rating [1, 6]: 100%; Test B disease control rating [2, 7]: 95%
5 | CON(Cc1ccc(OCC2(C(F)(F)F)OCCO2)cc1)C(=O)C1CC1 [compound 236] | 75% | 0% | 
6 | CCOC(=O)C1=NOC(Cc2ccc(OC=C(OCC)C(F)(F)F)cc2)C1 (centres unmarked) [compound 287] |  |  | Test A disease control rating [1, 5]: 77%; Test B disease control rating [2, 5]: 0%
7 | CCCNC(=O)c1ccc(O/C=C(\OCC)C(F)(F)F)cc1 [compound 104] | 0% | 80% | 
8 | CCOC(=O)c1cnn(CCc2cccc(OCC(O)(O)C(F)(F)F)c2)c1 [compound 346] |  |  | pest or weed control at 10 ppm [1, 8]: 0%; pest or weed control at 10 ppm [2, 9]: 0%
9 | CCO/C(=C\Oc1ccc(Cn2cnc(C(=O)OC)c2)cc1)C(F)(F)F [compound 86] | 99% | 0% | 
10 | CCOC(=O)c1ccn(Cc2ccc(OCC3(C(F)(F)F)OCCO3)cc2)n1 [compound 232] | 98% | 0% | 
11 | CCOC(=O)c1cnn(Cc2ccc(OCC(O)(O)C(F)(F)F)cc2)c1 [compound 227] | 99% | 55% | 
12 | C=C(C)COC(=O)c1cnn(Cc2ccc(OCC(O)(O)C(F)(F)F)cc2)c1 [compound 40] | 91% | 68% | 
13 | CCOC(=O)c1cnn(C(C)c2ccc(OCC(O)(O)C(F)(F)F)cc2)c1 (centres unmarked) [compound 35] | 99% | 32% | 
14 | O=C(OCc1cccnc1)c1cnn(Cc2ccc(OCC3(C(F)(F)F)OCCO3)cc2)c1 [compound 200] | 100% | 0% | 
15 | CCOC(=O)c1cnn(Cc2ccc(CO/C=C(\OCC)C(F)(F)F)cc2)c1 [compound 167] | 38% | 0% | 
16 | COC(=O)c1cnn(Cc2ccc(OCC(O)(O)C(F)(F)F)cc2)c1 [compound 37] | 99% | 86% | 
17 | CCCCOC(=O)c1ccn(Cc2ccc(O/C=C(\OCC)C(F)(F)F)cc2)n1 [compound 356] |  |  | Test A disease control rating [1, 10]: 100%; Test B disease control rating [2, 10]: 0%
18 | Cc1ccc(OCC2(C(F)(F)F)OCCO2)c(F)c1 [compound 442] |  |  | pest or weed control at 50 ppm ([1]; Phakopsora pachyrhizi, 50 ppm test suspension, 0 = no control): 0%; pest or weed control at 50 ppm ([2]; Puccinia recondita, 50 ppm test suspension, 0 = no control): 0%
19 | COC(C)C(=O)NCc1ccc(OCC2(C(F)(F)F)OCCO2)cc1 (centres unmarked) [compound 214] | 0% | 0% | 
20 | CCO/C(=C\Oc1ccc(Cn2ccc(C(=O)OCC(C)=O)n2)cc1)C(F)(F)F [compound 359] |  |  | Test A disease control rating [1, 10]: 100%; Test B disease control rating [2, 10]: 0%
21 | CCOC(=O)c1cnn(Cc2ccc(OCC3(C(F)(F)F)OC(=O)C(C)O3)cc2)c1 (centres unmarked) [compound 187] | 93% | 74% | 
22 | FC(F)(F)c1nc(-c2ccc(OCC3(C(F)(F)F)OCCO3)cc2)no1 [compound 173] | 0% | 0% | 
23 | O=C(OCc1ccc(Cl)c(Cl)c1)c1cnn(Cc2ccc(OCC(O)(O)C(F)(F)F)cc2)c1 [compound 49] | 0% | 86% | 
24 | OC(O)(CCc1ccc(Cn2ccc3ccccc32)cc1)C(F)(F)F [compound 30] | 0% | 0% | 
25 | O=Cc1ccc(OCC(O)(O)C(F)(F)F)cc1 [compound 177] |  |  | Test A disease control rating [1, 6]: 100%; Test B disease control rating [2, 7]: 89%
26 | CCO/C(=C\Oc1ccc(CCn2cc(C(=O)O)cn2)cc1)C(F)(F)F [compound 328] |  |  | Test A disease control rating [1, 10]: 100%; Test B disease control rating [2, 10]: 0%

Row | Compound | Test A disease control rating [1, 3] | Test B disease control rating [2, 4] | also measured
27 | CCO/C(=C\Oc1ccc(S(C)(=O)=O)cc1)C(F)(F)F [compound 60] | 0% | 0% | 
28 | CCO/C(=C\Oc1cccc(Cn2cc(C(=O)OC(C)C)cn2)c1)C(F)(F)F [compound 332] |  |  | Test A disease control rating [1, 10]: 100%; Test B disease control rating [2, 10]: 0%
29 | CCOC(=O)c1cnn(Cc2ccc(O/C=C(\OCC)C(F)(F)F)cc2)n1 [compound 119] | 97% | 0% | 
30 | CCO/C(=C\Oc1cccc(Cn2cc(C(=O)OCCCCl)cn2)c1)C(F)(F)F [compound 338] |  |  | Test A disease control rating [1, 10]: 100%; Test B disease control rating [2, 10]: 0%
31 | CON(Cc1ccc(OCC2(C(F)(F)F)OCCO2)cc1)C(=O)C(C)C [compound 235] | 97% | 0% | 
32 | CCOC(=O)c1cnn(Cc2ccc(COCC3(C(F)(F)F)OCCO3)cc2)c1 [compound 141] | 0% | 0% | 
33 | CCO/C(=C\Oc1ccc(CCn2cc(C(=O)OC)cn2)cc1)C(F)(F)F [compound 354] |  |  | Test A disease control rating [1, 10]: 100%; Test B disease control rating [2, 10]: 0%
34 | CCCOC(=O)c1ccc(O/C=C(\OCC)C(F)(F)F)cc1 [compound 94] | 0% | 0% | 
35 | CCOC(=O)c1ccc2c(cnn2Cc2ccc(OCC3(C(F)(F)F)OCCO3)cc2)c1 [compound 160] | 13% | 0% | 
36 | CN(C)C(=O)c1cnn(Cc2ccc(OCC3(C(F)(F)F)OCCO3)cc2)c1 [compound 198] | 0% | 0% | 
37 | CCOC(=O)c1cnn(Cc2ccc(O/C=C(\OCCO)C(F)(F)F)cc2)c1 [compound 145] | 82% | 0% | 
38 | CCOC(=O)c1cn(Cc2cccc(O/C=C(\OCC)C(F)(F)F)c2)cn1 [compound 446] |  |  | pest or weed control at 10 ppm [1, 8]: 98%; pest or weed control at 10 ppm [2, 9]: 0%
39 | CCOC(=O)c1cnn(C(C)c2ccc(O/C=C(\OCC)C(F)(F)F)cc2)c1 (centres unmarked) [compound 267] |  |  | Test A disease control rating [1, 10]: 94%; Test B disease control rating [2, 10]: 0%
40 | CCO/C(=C\Oc1cccc(Cn2cc(C(=O)OCCCC(F)(F)F)cn2)c1)C(F)(F)F [compound 355] |  |  | Test A disease control rating [1, 10]: 100%; Test B disease control rating [2, 10]: 0%
41 | CCO/C(=C\Oc1ccc(Cc2nc(C(=O)NCC(F)(F)F)cs2)cc1)C(F)(F)F [compound 129] | 100% | 0% | 
42 | CCOC(=COc1ccc(CCl)cc1)C(F)(F)F [compound 434] |  |  | Test A disease control rating [1, 5]: 0%; Test B disease control rating [2, 5]: 0%
43 | CCO/C(=C\Oc1ccc(Cn2cc(C(=O)OC(C)C)cn2)cc1)C(F)(F)F [compound 139] | 100% | 0% | 
44 | CCO/C(=C\Oc1ccc(CN)cc1)C(F)(F)F [compound 110] |  |  | Test A disease control rating [1, 6]: 79%; Test B disease control rating [2, 7]: 0%
45 | CCOC(=O)c1csc(Cc2cccc(O/C=C(\OCC)C(F)(F)F)c2)n1 [compound 370] |  |  | Test A disease control rating [1, 10]: 0%; Test B disease control rating [2, 10]: 0%
46 | CCOC(=O)c1cc(OC)n(Cc2ccc(O/C=C(\OCC)C(F)(F)F)cc2)n1 [compound 90] | 100% | 0% | 
47 | CS(=O)(=O)c1ccc(OCC(O)(O)C(F)(F)F)cc1 [compound 31] | 44% | 93% | 
48 | CCOC(=COc1ccc(Cn2ccc(C)n2)cc1)C(F)(F)F [compound 158] | 0% | 0% | 
49 | CCOC(=O)c1ccnn1Cc1ccc(OCC(O)(O)C(F)(F)F)cc1 [compound 234] |  |  | Test A disease control rating [1, 6]: 100%; Test B disease control rating [2, 7]: 92%
50 | CCCCOC(=O)c1cnn(Cc2cccc(O/C=C(\OCC)C(F)(F)F)c2)c1 [compound 339] |  |  | Test A disease control rating [1, 10]: 100%; Test B disease control rating [2, 10]: 0%
51 | CCOC(=COc1ccc(Cn2ccc(C(=O)OC)n2)cc1)C(F)(F)F [compound 251] | 100% | 9% | 
52 | CCO/C(=C\Oc1ccc(C(=O)NC(C)C)cc1)C(F)(F)F [compound 101] | 0% | 0% | 
